Measured values from patent publication US20250092051A1, “NLRP3 MODULATORS AND USE THEREOF” (Bioentropy Inc., priority 2023, published 2025).

What was measured:
NLRP3 [1] = molecular target: T1, NLRP3 (Homo sapiens, UniProt Q96P20); assay: THP-1 pyroptosis assay (caspase-1 p20 in supernatant by Western blot); assay type: cell-based; conditions: PMA-differentiated THP-1, LPS 50 ng/ml 4 h, compound 30 min, nigericin 15 μM 45 min; caspase-1 p20 Western blot
T1 construct: host or cells: THP-1 cells, PMA-differentiated, LPS-primed, nigericin-stimulated
T1 sequence (Q96P20 whole entry): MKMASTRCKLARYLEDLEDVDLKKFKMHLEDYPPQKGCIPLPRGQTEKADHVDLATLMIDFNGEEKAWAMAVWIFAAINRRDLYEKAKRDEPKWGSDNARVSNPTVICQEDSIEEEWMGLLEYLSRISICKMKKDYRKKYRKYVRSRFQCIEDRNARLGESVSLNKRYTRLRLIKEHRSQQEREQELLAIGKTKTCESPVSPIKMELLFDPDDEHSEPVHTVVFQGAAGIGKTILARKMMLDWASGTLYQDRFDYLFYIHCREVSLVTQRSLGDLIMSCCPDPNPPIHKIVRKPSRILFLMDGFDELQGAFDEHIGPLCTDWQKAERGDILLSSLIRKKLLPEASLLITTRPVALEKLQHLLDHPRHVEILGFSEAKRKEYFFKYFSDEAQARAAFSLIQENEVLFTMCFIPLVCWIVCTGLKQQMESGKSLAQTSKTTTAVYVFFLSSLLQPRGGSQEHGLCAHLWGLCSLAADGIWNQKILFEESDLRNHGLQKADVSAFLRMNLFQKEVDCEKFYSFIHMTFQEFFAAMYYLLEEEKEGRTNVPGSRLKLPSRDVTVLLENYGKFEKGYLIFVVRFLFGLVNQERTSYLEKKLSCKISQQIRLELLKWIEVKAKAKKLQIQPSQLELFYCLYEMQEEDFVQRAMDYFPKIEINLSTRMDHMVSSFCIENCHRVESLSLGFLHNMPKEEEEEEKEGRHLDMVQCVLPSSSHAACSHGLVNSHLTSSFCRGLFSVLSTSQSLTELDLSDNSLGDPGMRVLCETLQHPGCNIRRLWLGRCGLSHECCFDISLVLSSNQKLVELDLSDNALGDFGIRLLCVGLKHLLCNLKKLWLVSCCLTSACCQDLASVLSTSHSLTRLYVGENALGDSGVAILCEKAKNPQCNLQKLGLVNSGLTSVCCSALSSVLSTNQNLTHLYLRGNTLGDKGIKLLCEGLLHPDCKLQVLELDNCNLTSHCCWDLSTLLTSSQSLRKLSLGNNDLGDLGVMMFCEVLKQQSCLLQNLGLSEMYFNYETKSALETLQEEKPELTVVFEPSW
Description: (§1) THP-1 cell lines (procell, #CL-0233) were cultured in RPMI-1640 medium (Gibco, #C11875500BT) supplemented with 10% FBS, 100 U/ml penicillin, 100 µg/ml streptomycin and 0.05 mM β-mercaptoethanol (BME). THP-1 cells were seeded at 5×10^5/ml in 12 well plates and were differentiated into macrophages by incubation with 5 ng/ml PMA (Sigma, #P8139-1MG) for 48 h. Cells were washed with PBS and then were primed with 50 ng/ml LPS (InvivoGen, #tlrl-b5lps) for 4 h. Medium were removed and replaced with serum free medium (SFM) containing compound (2.5-40 nM) or MCC950 (5-25 nM) for 30 min. Cells were then stimulated with 15 μM nigericin (Invivogen, #tlrl-nig) for 45 min.
The protein of supernatants was concentrated using StrataClean™ resin (Agilent, #400714) according to the manufacturer's instructions. The protein samples were resolved on 4-20% SDS-PAGE gels and transferred onto 0.45 PVDF membrane (Immobilon-P #IPVH00010) using a wet transfer system. Membranes were blocked in 5% (w/v) dried milk in PBST for 1 h at room temperature. Membranes were incubated with primary antibody (Adipogen, #AG-20B-0048B-C100) diluted in Primary Antibody Dilution Buffer (Beyotime, #P0023A-100 ml) according to the manufacturer's instructions, followed by incubation with the IgG(H+L) (HRP-labeled Goat Anti-Mouse IgG(H+L) (Beyotime, #A0216) diluted in 1% (w/v) dried milk in PBST for 1 h. The protein expression was visualized using Super ECL Detection Reagent (YEASEN,
FIG. 1. Results of Western blots for THP-1 cell-based pyroptosis assay using the cleavage of caspase-1 into p20 as reporting indication of NLRP3 inhibition. […] Molecule N-027 (Compound #51) and N-027B (Compound #53) inhibits NLRP3 inflammasome activation in macrophages, N-027 IC50 (caspase-1)<5 nM; N-027B IC50 (caspase-1) 1 nM. THP-1 cells were primed for 4 h with LPS (50 ng/ml), and then LPS-primed THP-1 cells were incubated with N-027 or N-027B for 30 min and then stimulated with nigericin (15 μM) for 45 min. Caspase-1 (p20) in supernatants were measured by Western blots.

NLRP3 [2] = molecular target: T1, NLRP3; assay: IL-1β assay (ELISA of THP-1 culture supernatant); assay type: cell-based; conditions: PMA-differentiated THP-1, LPS 50 ng/ml 4 h, compound 30 min, nigericin 15 μM 45 min; Human IL-1β ELISA
Description: as §1
The culture supernatant of THP-1 was removed and analyzed using Human IL-1β ELISA Kit according to the manufacturer's instructions (Beyotime, #PI305). The IL-1β concentration was measured at 450 nm wavelength of absorbance and calculated.

IC50 (NLRP3 [1]) [nM] | IC50 (NLRP3 [2]) [nM] | Structure (SMILES)
< 2.5 | < 20 | Cc1cc(Br)cc(C)c1-n1nc2nc(N3CCOCC3)[nH]c(=O)c2n1 [Compound 1, 2-(4-bromo-2,6-dimethylphenyl)-5-morpholino-2,6-dihydro-7H-[1,2,3]triazolo[4,5-d]pyrimidin-7-one]
< 1600 | < 1600 | Cc1cc(Br)cc(C)c1-n1nc2nc(N3CCOCC3)[nH]c(=S)c2n1 [Compound 2, 2-(4-bromo-2,6-dimethylphenyl)-5-morpholino-2,6-dihydro-7H-[1,2,3]triazolo[4,5-d]pyrimidine-7-thione]
< 5 | < 15 | Cc1cc(C2CC2)cc(C)c1-n1nc2nc(N3CCOCC3)[nH]c(=O)c2n1 [Compound 3, 2-(4-cyclopropyl-2,6-dimethylphenyl)-5-morpholino-2,6-dihydro-7H-[1,2,3]triazolo[4,5-d]pyrimidin-7-one]
> 1000 | > 1000 | Cc1cc(C2CC2)cc(C)c1-n1nc2nc(N3CCOCC3)[nH]c(=S)c2n1 [Compound 4, 2-(4-cyclopropyl-2,6-dimethylphenyl)-5-morpholino-2,6-dihydro-7H-[1,2,3]triazolo[4,5-d]pyrimidine-7-thione]
< 5 | < 5 | Cc1cc(Br)cc(C)c1-n1nc2nc(N3CCCC3)[nH]c(=O)c2n1 [Compound 51, 2-(4-bromo-2,6-dimethylphenyl)-5-(pyrrolidin-1-yl)-2,6-dihydro-7H-[1,2,3]triazolo[4,5-d]pyrimidin-7-one]
< 50 | < 500 | Cc1cc(Br)cc(C)c1-n1nc2nc(N3CCCC3)[nH]c(=S)c2n1 [Compound 52, 2-(4-bromo-2,6-dimethylphenyl)-5-(pyrrolidin-1-yl)-2,6-dihydro-7H-[1,2,3]triazolo[4,5-d]pyrimidine-7-thione]
≤ 1 | < 5 | Cc1cc(C2CC2)cc(C)c1-n1nc2nc(N3CCCC3)[nH]c(=O)c2n1 [Compound 53, 2-(4-cyclopropyl-2,6-dimethylphenyl)-5-(pyrrolidin-1-yl)-2,6-dihydro-7H-[1,2,3]triazolo[4,5-d]pyrimidin-7-one]
< 100 | < 100 | Cc1cc(C2CC2)cc(C)c1-n1nc2nc(N3CCCC3)[nH]c(=S)c2n1 [Compound 54, 2-(4-cyclopropyl-2,6-dimethylphenyl)-5-(pyrrolidin-1-yl)-2,6-dihydro-7H-[1,2,3]triazolo[4,5-d]pyrimidine-7-thione]
10 |  | Cc1cc(Cl)cc(C)c1-n1nc2nc(N3CCCC3)[nH]c(=O)c2n1 [Compound 63, 2-(4-chloro-2,6-dimethylphenyl)-5-(pyrrolidin-1-yl)-2,6-dihydro-7H-[1,2,3]triazolo[4,5-d]pyrimidin-7-one]
2.5 | < 10 | O=c1[nH]c(N2CCCC2)nc2nn(-c3ccc(Br)cc3C(F)(F)F)nc12 [Compound 75, 2-(4-bromo-2-(trifluoromethyl)phenyl)-5-(pyrrolidin-1-yl)-2,6-dihydro-7H-[1,2,3]triazolo[4,5-d]pyrimidin-7-one]
< 10 | < 10 | O=c1[nH]c(N2CCCC2)nc2nn(-c3ccc(C4CC4)cc3C(F)(F)F)nc12 [Compound 77, 2-(4-cyclopropyl-2-(trifluoromethyl)phenyl)-5-(pyrrolidin-1-yl)-2,6-dihydro-7H-[1,2,3]triazolo[4,5-d]pyrimidin-7-one]
7.5 | < 15 | O=c1[nH]c(N2CCCC2)nc2nn(-c3c(Cl)cc(Br)cc3Cl)nc12 [Compound 91, 2-(4-bromo-2,6-dichlorophenyl)-5-(pyrrolidin-1-yl)-2,6-dihydro-7H-[1,2,3]triazolo[4,5-d]pyrimidin-7-one]
< 6.2 | < 6.2 | CCN(CC)c1nc2nn(-c3c(C)cc(Br)cc3C)nc2c(=O)[nH]1 [Compound 95, 2-(4-bromo-2,6-dimethylphenyl)-5-(diethylamino)-2,6-dihydro-7H-[1,2,3]triazolo[4,5-d]pyrimidin-7-one]
5 | < 20 | O=c1[nH]c(N2CCCC2)nc2nn(-c3ccc(Br)cc3Cl)nc12 [Compound 97, 2-(4-bromo-2-chlorophenyl)-5-(pyrrolidin-1-yl)-2,6-dihydro-7H-[1,2,3]triazolo[4,5-d]pyrimidin-7-one]
7.5 | < 15 | O=c1[nH]c(N2CCCC2)nc2nn(-c3c(F)cc(Br)cc3Cl)nc12 [Compound 98, 2-(4-bromo-2-chloro-6-fluorophenyl)-5-(pyrrolidin-1-yl)-2,6-dihydro-7H-[1,2,3]triazolo[4,5-d]pyrimidin-7-one]
< 10 | < 20 | O=c1[nH]c(N2CCCC2)nc2nn(-c3c(F)cc(Br)cc3F)nc12 [Compound 99, 2-(4-bromo-2,6-difluorophenyl)-5-(pyrrolidin-1-yl)-2,6-dihydro-7H-[1,2,3]triazolo[4,5-d]pyrimidin-7-one]
< 100 | < 200 | CCN1CCN(c2nc3nn(-c4ccc(C5CC5)cc4C(F)(F)F)nc3c(=O)[nH]2)CC1 [Compound 100, 2-(4-cyclopropyl-2-(trifluoromethyl)phenyl)-5-(4-ethylpiperazin-1-yl)-2,6-dihydro-7H-[1,2,3]triazolo[4,5-d]pyrimidin-7-one]
< 10 | < 100 | Cc1cc(C2CC2)cc(C)c1-n1nc2nc(N(C)CCN(C)C)[nH]c(=O)c2n1 [Compound 101, 2-(4-cyclopropyl-2,6-dimethylphenyl)-5-((2-(dimethylamino)ethyl)(methyl)amino)-2,6-dihydro-7H-[1,2,3]triazolo[4,5-d]pyrimidin-7-one]
< 40 | > 100 | CCN1CCN(c2nc3nn(-c4c(C)cc(C5CC5)cc4C)nc3c(=O)[nH]2)CC1 [Compound 102, 2-(4-cyclopropyl-2,6-dimethylphenyl)-5-(4-ethylpiperazin-1-yl)-2,6-dihydro-7H-[1,2,3]triazolo[4,5-d]pyrimidin-7-one]
< 10 | < 10 | O=c1[nH]c(N2CCOCC2)nc2nn(-c3c(F)cc(C4CC4)cc3Cl)nc12 [Compound 103, 2-(2-chloro-4-cyclopropyl-6-fluorophenyl)-5-morpholino-2,6-dihydro-7H-[1,2,3]triazolo[4,5-d]pyrimidin-7-one]
< 6 | < 10 | Cc1cc(C2CC2)cc(F)c1-n1nc2nc(N3CCOCC3)[nH]c(=O)c2n1 [Compound 104, 2-(4-cyclopropyl-2-fluoro-6-methylphenyl)-5-morpholino-2,6-dihydro-7H-[1,2,3]triazolo[4,5-d]pyrimidin-7-one]
< 6 | < 10 | O=c1[nH]c(N2CCOCC2)nc2nn(-c3c(F)cc(C4CC4)cc3C(F)(F)F)nc12 [Compound 105, 2-(4-cyclopropyl-2-fluoro-6-(trifluoromethyl)phenyl)-5-morpholino-2,6-dihydro-7H-[1,2,3]triazolo[4,5-d]pyrimidin-7-one]
> 100 | > 100 | CCN1CCN(c2nc3nn(-c4c(C)cc(C5CC5)cc4F)nc3c(=O)[nH]2)CC1 [Compound 106, 2-(4-cyclopropyl-2-fluoro-6-methylphenyl)-5-(4-ethylpiperazin-1-yl)-2,6-dihydro-7H-[1,2,3]triazolo[4,5-d]pyrimidin-7-one]
 | < 33 | Cc1cc(C2CC2)cc(C)c1-n1nc2nc(N3CCOC[C@H]3C)[nH]c(=O)c2n1 [Compound 107, (R)-2-(4-cyclopropyl-2,6-dimethylphenyl)-5-(3-methylmorpholino)-2H-[1,2,3]triazolo[4,5-d]pyrimidin-7(6H)-one]
 | < 500 | Cc1cc(C2CC2)cc(C)c1-n1nc2nc(N3CCOCC3)n(C)c(=O)c2n1 [Compound 108, 2-(4-cyclopropyl-2,6-dimethyl-phenyl)-6-methyl-5-morpholino-triazolo[4,5-d]pyrimidin-7-one]
 | > 10000 | COc1nc(N2CCOCC2)nc2nn(-c3c(C)cc(C4CC4)cc3C)nc12 [Compound 109, 4-[2-(4-cyclopropyl-2,6-dimethyl-phenyl)-7-methoxy-triazolo[4,5-d]pyrimidin-5-yl]morpholine]
